Test results: PMC8216263 (Pharmaceutical Biology, 2021)
≈ marks a conversion by molar mass, not a printed value. Like-named read-outs stand apart in the source and are kept apart here.

Experiments:
[1] = Urinary excretion of GA and PCA after oral RLQ in healthy subjects; format: in vivo, human; details: for fraction unbound / dose excreted: human, urine, oral, 8 g; for fraction unbound: urine within 24 h, read-out: Fu (fraction of administered dose excreted in the urine); for dose excreted: abstract summary, read-out: 24 h urine recovery rate
Description: In the single-dose study, 8 g of RLQ was administered orally on day 1. A 7-d washout time was designed between single-dose and multiple-dose pharmacokinetic studies. In the multiple-dose study, subjects received multiple doses of RLQ (8 g, t.i.d.) for seven consecutive days from day 8 to day 14 and a single dose of RLQ (8 g) on the morning of day 15. On days 1 and 15, blood samples (3 mL) were collected from the antecubital vein catheter before drug administration and at 0.08, 0.17, 0.33, 0.5, 0.75, 1, 1.5, 2, 3, 4, 6, 8, 12 and 24 h after dosing. Additional pre-dose samples were collected in the morning on days 12, 13 and 14. Urine samples were collected over a 12 h interval before dosing and at the following time intervals thereafter: 0–2, 2–5, 5–8, 8–12 and 12–24 h. All samples were stored at −80 °C until analysis.
All analytes were extracted from plasma and urine samples by simple protein precipitation extraction method using acetonitrile. Briefly, 5 µL of internal standard solution and 300 μL of acetonitrile were added to the spiked blank matrix (100 μL) and vortexed for 3 min and then centrifuged at 13,000 × g for 10 min. The supernatant was transferred and dried using a flow of nitrogen. The residue was re-dissolved in 100 µL of 10% methanol solution containing 0.1% formic acid. An aliquot of 5 µL solution was injected into the LC-MS/MS system for analysis.
The GA and PCA concentrations were determined using a validated LC-MS/MS method with some modifications (Ma et al. [2015]). The chromatographic separation was performed on an Acquity Ultra Performance LC instrument (Waters, Milford, MA) with a gradient programme in an ACQUITY UPLC BEH C18 column (2.1 mm × 100 mm, 1.7 μm). The gradient programme was performed with the mobile phase (0.3 mL/min) consisting of 0.1% formic acid aqueous solution (A) and acetonitrile (B) as follows: 97% A (0–8.5 min), 60% A (8.7–11 min), 10% A (11.5–13.5 min) and 97% A (14–15 min). The injection volume was 2 µL. The mass spectrometry analysis was performed on an AB Sciex Triple Quad 5500 MS (Framingham, MA) equipped with an ESI source. The quantitative analyses of GA, PCA and chloramphenicol were performed in a negative mode by multiple reaction monitoring (MRM) with the ion transitions of m/z 169.0→125.1, 153.1→109.0 and 321.1→152.1, respectively.
Pharmacokinetic parameters of GA and PCA were estimated with a non-compartmental method using Phoenix WinNonlin version 6.4 (Certara, Princeton, NJ). The peak plasma concentration (Cmax) and time to reach the peak plasma concentration (Tmax) were calculated from the actual plasma concentration data. The area under the plasma concentration-time curve from zero to the last measurable concentration (AUC0–t) was calculated via the linear trapezoidal rule. AUC0–∞ was calculated using the following formula: AUC0–∞ = AUC0–t + Ct/ke, where Ct is the last plasma concentration measured. The terminal elimination half-life (t1/2) was calculated as 0.693/ke, and the total clearance (CL/F) was calculated as dose/AUC0–∞. The accumulation index was calculated as AUCss/AUC0–t.

OAT1 = molecular target: T1, OAT1 (Homo sapiens, UniProt Q4U2R8); assay: Inhibition of OAT1-mediated 14C-PAH uptake in MDCK-OAT1 cells; format: cell-based
T1 construct: host or cells: MDCK
T1 sequence (Q4U2R8 1-563): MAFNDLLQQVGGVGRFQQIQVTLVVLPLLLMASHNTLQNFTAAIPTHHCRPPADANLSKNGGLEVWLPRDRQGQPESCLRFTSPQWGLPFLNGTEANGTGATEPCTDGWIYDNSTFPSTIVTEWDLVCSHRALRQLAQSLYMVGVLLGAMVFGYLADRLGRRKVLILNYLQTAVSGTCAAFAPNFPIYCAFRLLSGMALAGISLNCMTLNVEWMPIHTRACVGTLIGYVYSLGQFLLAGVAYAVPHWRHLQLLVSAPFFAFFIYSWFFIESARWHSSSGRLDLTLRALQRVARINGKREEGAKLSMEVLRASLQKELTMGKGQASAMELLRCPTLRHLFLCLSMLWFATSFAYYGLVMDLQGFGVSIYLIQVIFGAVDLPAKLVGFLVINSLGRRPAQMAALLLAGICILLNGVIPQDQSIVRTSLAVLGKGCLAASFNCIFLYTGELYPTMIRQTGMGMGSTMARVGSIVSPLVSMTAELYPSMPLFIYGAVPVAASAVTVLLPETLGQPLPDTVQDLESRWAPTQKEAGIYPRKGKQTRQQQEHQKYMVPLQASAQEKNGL
Description: Cells were cultured in DMEM supplemented with 10% FBS, 100 units/mL penicillin and 100 units/mL streptomycin. […] Cell culture flasks, 24-well cell culture plates, and transwell polycarbonate inserts (12 mm diameter, 0.4 μm pore size) were purchased from Corning Co-star Corp. (Bedford, MA).
The MDCK-OAT1, S2-OAT3, S2-OCT2 and HEK293-OATP1B1 cell lines were utilized in this study. […] Briefly, S2-OAT3, S2-OCT2 and S2-mock cells were trypsinized and uniformly suspended in the culture medium’s designated volume to provide a density of 2.0 × 10^5 cells/mL. A 1.0-mL aliquot of the cell suspension was added into each well of 24-well insert plates. HEK293-OATP1B1, MDCK-OAT1 and their mock cells were seeded in 24-well plates at a density of 1.5 × 10^5 cells/well. […] Three washes terminated the experiment with ice-cold DPBS buffer after removing the incubation buffer. Cells were lysed with 400 μL of […] sodium hydroxide solution. The cell lysate and 3.0 mL of aquasol-2 scintillation fluid were put into a scintillation flask. […] The final concentration of DMSO in the assay was less than 0.1%. All experiments were performed in triplicate.

[2] = rats, ref Ma et al. 2016, cited from earlier work
[3] = estimated, 14C-PAH 5 µM, MDCK-OAT1 cells

| SMILES | fraction unbound ([1]; multiple dose RLQ 8 g) | fraction unbound ([1]; single dose RLQ 8 g) | dose excreted [1] | amount recovered in urine within 24 h ([1]; single dose RLQ 8 g) | IC50 (OAT1; [3]) | IC50 (OAT1) (OAT1; [3]) | concentration in rat kidney tissue [2] | mean urinary concentration ([1]; first 2 h after administration of RLQ 8 g) | inhibitory effect on OAT1 (OAT1; GA 50–5000 μg/L, PCA 10–1000 μg/L) | unchanged amount that survived the metabolism, % of the total intake ([2]; urinary excretion) |
| --- | --- | --- | --- | --- | --- | --- | --- | --- | --- | --- |
| O=C(O)c1cc(O)c(O)c(O)c1 [GA, gallic acid] | 0.107 | ~0.086 | ~10% | 2.48 ± 1.34 mg | 3.73 µM | 0.6341 µg/mL (≈ 3.73 µM) | 1218 ng/g |  |  |  |
| O=C(O)c1ccc(O)c(O)c1 [PCA, protocatechuic acid] |  | ~0.042 | ~5% | 0.046 ± 0.040 mg |  |  |  | ~150 µg/L | no significant inhibitory effect | ~15.7% |
